Laboratory results from US11306105B2, “Cyano thienotriazolodiazepines and uses thereof” (Dana-Farber Cancer Institute, Inc., priority 2015, dated 2022).
Like-named read-outs stand apart in the source and are kept apart here.

Key:
[1] = target: BRD4(1) (Homo sapiens (Human), UniProt O60885); assay: AlphaScreen acetyl-histone binding assay, BRD4(1)
Procedure: (§1) The IC50 of the compounds were determined by ALPHASCREENING assays for BRD4 and BRDT proteins. NMC797 cell line is a BRD4 dependent NUT midline carcinoma line.
(§2) Acetyl-Histone Binding Assay. Assays were performed as described previously with minor modifications from the manufacturer's protocol (PerkinElmer, USA). All reagents were diluted in 50 mM HEPES, 100 mM NaCl, 0.1% BSA, pH 7.4 supplemented with 0.05% CHAPS and allowed to equilibrate to room temperature prior to addition to plates. A 24-point 1:2 serial dilution of the ligands was prepared over the range of 150-0 μM and 4 μl transferred to low-volume 384-well plates (ProxiPlate™-384 Plus, PerkinElmer, USA), followed by 4 μl of HIS-tagged protein (BRD4/1, 250 nM, BRD4/2 and CREBBP, 2000 nM). […] Plates were sealed and incubated for a further 30 minutes, before the addition of 4 μl of streptavidin-coated donor beads (25 μg/ml) and 4 μl nickel chelate acceptor beads (25 μg/ml) under low light conditions. Plates were foil-sealed to protect from light, incubated at room temperature for 60 minutes and read on a PHERAstar FS plate reader (BMG Labtech, Germany) using an AlphaScreen 680 excitation/570 emission filter set. IC50 values were calculated in Prism 5 (GraphPad Software, USA) after normalization against corresponding DMSO controls and are given as the final concentration of compound in the 20 μl reaction volume.

[2] = target: BRDT(1) (Homo sapiens (Human), UniProt Q58F21); assay: AlphaScreen acetyl-histone binding assay, BRDT(1)
Procedure: as §1, §2

[3] = tested on: NMC797 cell line (BRD4 dependent NUT midline carcinoma line); assay: Cell proliferation assay (ATP content), NMC797; type: cell-based; details: NMC797 cells, 48 h incubation
Procedure: as §1
Cell Proliferation Assay. Cells were seeded into white, 384-well microtiter plates (Nunc) at 500 cells per well in a total volume of 50 μL media. The 797, TT, and TE10 cells were grown in DMEM containing 1% penicillin/streptomycin and 10% FBS. The Per403 cells were grown in DMEM containing 1% penicillin/streptomycin and 20% FBS. Compounds were delivered to microtiter assay plates by robotic pin transfer (PerkinElmer JANUS equipped with a V&P Scientific 100 nL pin tool). Following a 48 h incubation at 37° C., cells were lysed and wells were assessed for total ATP content using a commercial proliferation assay (Cell TITERGLO; Promega). Replicate measurements were analyzed with respect to dose and estimates of IC50 were calculated by logistic regression ([…] PRISM).

[4] = Pharmacokinetics in male CD1 mice, oral administration; type: in vivo, mouse; details: for half-life: read-out: Terminal t1/2 (converted); for F: oral 10 mg/kg vs IV 5 mg/kg
Procedure: (§3) Pharmacokinetic parameters were determined by administration of a candidate bromodomain inhibitor to male CD1 mice. Intravenous doses were delivered at 5 mg/kg, and oral doses at 10 mg/kg (N=3). […] The compound concentration in mouse blood was monitored over 24 hour time period to check the compound concentration in blood at 5 min, […], 1 h, 2 h, 6 h, 12, 24 h via a series bleeding.

[5] = Pharmacokinetics in male CD1 mice, IV administration; type: in vivo, mouse; details: IV 5 mg/kg, whole blood; for AUC(0-inf) / AUC(0-t) / MRT inf / clearance / half-life / Vd: mouse; for half-life: read-out: Terminal t1/2 (converted); for Vd: read-out: VSS
Procedure: as §3

[6] = mouse, oral 10 mg/kg, whole blood
[7] = mouse, oral 10 mg/kg, whole blood, read-out: Cmax
[8] = mouse, oral 10 mg/kg, whole blood, read-out: Tmax

| SMILES | IC50 [1] [nM] | IC50 [2] [nM] | IC50 ([3]; NMC-797) [nM] | other results |
| --- | --- | --- | --- | --- |
| Cc1sc2c(c1C)C(c1ccc(C#N)cc1)=N[C@@H](CC(=O)NCCN1CCOCC1)c1nnc(C)n1-2 [Compound 104] | 53 | 216 | 183 |  |
| Cc1sc2c(c1C)C(c1ccc(Cl)cc1)=N[C@@H](CC(=O)OC(C)(C)C)c1nnc(C)n1-2 [JQ1, reference compound] |  |  |  | AUCINF ([4]; oral 10 mg/kg, whole blood): 2090 ng·h/mL; AUClast ([4]; oral 10 mg/kg, whole blood): 2040 ng·h/mL; Cmax ([4]; oral 10 mg/kg, whole blood): 1180 ng/mL; Tmax ([4]; oral 10 mg/kg, whole blood): 15 min; AUCINF [5]: 2130 ng·h/mL; AUClast [5]: 2130 ng·h/mL; CL [5]: 39.2 mL/min/kg; MRTINF [5]: 51.7 min; IC50 [3]: 21 nM |
| Cc1c(CC#N)sc2c1C(c1ccc(Cl)cc1)=N[C@@H](CC(=O)NCCO)c1nnc(C)n1-2 [Compound 206] | 197 | 642 | 9630 |  |
| Cc1c(CC#N)sc2c1C(c1ccc(Cl)cc1)=N[C@@H](CC(N)=O)c1nnc(C)n1-2 [Compound 205] | 206 | 612 | 903 |  |
| Cc1c(CC#N)sc2c1C(c1ccc(Cl)cc1)=N[C@@H](CC(=O)Nc1ccc(O)cc1)c1nnc(C)n1-2 [Compound 201] | 175 |  | 1900 |  |
| Cc1c(CC#N)sc2c1C(c1ccc(Cl)cc1)=N[C@@H](CC(=O)NCC(F)F)c1nnc(C)n1-2 [Compound 209] | 386 |  | 912 |  |
| Cc1c(CC#N)sc2c1C(c1ccc(Cl)cc1)=N[C@@H](CC(=O)NCCCN1CCN(C)CC1)c1nnc(C)n1-2 [Compound 203] | 134 |  | 6790 |  |
| Cc1sc2c(c1C)C(c1ccc(C#N)cc1)=N[C@@H](CC(=O)NCCO)c1nnc(C)n1-2 [Compound 106] | 33 | 105 | 328 |  |
| Cc1sc2c(c1C)C(c1ccc(C#N)cc1)=N[C@@H](CC(=O)N1CCOCC1)c1nnc(C)n1-2 [Compound 110] | 89 | 197 | 116 |  |
| Cc1c(CC#N)sc2c1C(c1ccc(Cl)cc1)=N[C@@H](CC(=O)NC[C@@H](C)O)c1nnc(C)n1-2 [Compound 208] | 415 | 1200 | 6100 |  |
| Cc1c(CC#N)sc2c1C(c1ccc(Cl)cc1)=N[C@@H](CC(=O)NCCN1CCOCC1)c1nnc(C)n1-2 [Compound 204] | 300 |  | 3460 |  |
| CCNC(=O)C[C@@H]1N=C(c2ccc(Cl)cc2)c2c(sc(CC#N)c2C)-n2c(C)nnc21 [Compound 202] | 310 |  | 1130 |  |
| COC(=O)C[C@@H]1N=C(c2ccc(Cl)cc2)c2c(sc(CC#N)c2C)-n2c(C)nnc21 [Compound 200] | 48 | 132 | 52 | AUC(0-inf) [4, 6]: 6040 ng·h/mL; AUC(0-t) [4, 6]: 5520 ng·h/mL; Cmax [4, 7]: 1500 ng/mL; half-life [4, 6]: 118 min; Tmax [4, 8]: 30 min; F [4]: 72.4%; AUC(0-inf) [5]: 4050 ng·h/mL; AUC(0-t) [5]: 4000 ng·h/mL; MRT inf [5]: 76.8 min; clearance [5]: 20.8 mL/min/kg; half-life [5]: 82.8 min; Vd [5]: 1.57 L/kg |
| Cc1sc2c(c1C)C(c1ccc(C#N)cc1)=N[C@@H](CC(=O)NCC(F)(F)F)c1nnc(C)n1-2 [Compound 111] | 117 |  | 125 |  |
| Cc1sc2c(c1C)C(c1ccc(C#N)cc1)=N[C@@H](CC(=O)Nc1ccc(O)cc1)c1nnc(C)n1-2 [Compound 101] | 79 | 120 | 133 |  |
| Cc1c(CC#N)sc2c1C(c1ccc(Cl)cc1)=N[C@@H](CC(=O)N1CCOCC1)c1nnc(C)n1-2 [Compound 210] | 466 | 1420 | 118 |  |
| CCNC(=O)C[C@@H]1N=C(c2ccc(C#N)cc2)c2c(sc(C)c2C)-n2c(C)nnc21 [Compound 102] | 120 | 458 | 275 |  |
| Cc1sc2c(c1C)C(c1ccc(C#N)cc1)=N[C@@H](CC(=O)NC[C@H](C)O)c1nnc(C)n1-2 [Compound 107] | 61 | 187 | 107 | AUC(0-inf) [4, 6]: 532 ng·h/mL; AUC(0-t) [4, 6]: 512 ng·h/mL; Cmax [4, 7]: 319 ng/mL; half-life [4, 6]: 97.2 min; Tmax [4, 8]: 30 min; F [4]: 9.10%; AUC(0-inf) [5]: 2920 ng·h/mL; AUC(0-t) [5]: 2920 ng·h/mL; MRT inf [5]: 20.2 min; clearance [5]: 29.3 mL/min/kg; half-life [5]: 24.7 min; Vd [5]: 0.583 L/kg |
| Cc1c(CC#N)sc2c1C(c1ccc(Cl)cc1)=N[C@@H](CC(=O)NC[C@H](C)O)c1nnc(C)n1-2 [Compound 207] | 623 |  | 4250 |  |
| Cc1sc2c(c1C)C(c1ccc(C#N)cc1)=N[C@@H](CC(=O)OC(C)(C)C)c1nnc(C)n1-2 [Compound 100] |  |  | 185 |  |
| Cc1sc2c(c1C)C(c1ccc(C#N)cc1)=N[C@@H](CC(N)=O)c1nnc(C)n1-2 [Compound 105] | 174 | 565 | 366 |  |
| Cc1sc2c(c1C)C(c1ccc(C#N)cc1)=N[C@@H](CC(=O)NCC(F)F)c1nnc(C)n1-2 [Compound 109] | 37 | 142 | 70 | AUC(0-inf) [4, 6]: 3780 ng·h/mL; AUC(0-t) [4, 6]: 3630 ng·h/mL; Cmax [4, 7]: 1210 ng/mL; half-life [4, 6]: 101 min; Tmax [4, 8]: 40 min; F [4]: 53.8%; AUC(0-inf) [5]: 3510 ng·h/mL; AUC(0-t) [5]: 3500 ng·h/mL; MRT inf [5]: 49.7 min; clearance [5]: 23.7 mL/min/kg; half-life [5]: 66.6 min; Vd [5]: 1.18 L/kg |
| COC(=O)C[C@@H]1N=C(c2ccc(Cl)cc2)c2c(sc(CNS(=O)(=O)c3ccccc3)c2C)-n2c(C)nnc21 [Compound 300] | 16 | 60 | 61 |  |
| Cc1sc2c(c1C)C(c1ccc(C#N)cc1)=N[C@@H](CC(=O)NC[C@@H](C)O)c1nnc(C)n1-2 [Compound 108] | 52 | 133 | 258 |  |
| Cc1sc2c(c1C)C(c1ccc(C#N)cc1)=N[C@@H](CC(=O)NCCCN1CCN(C)CC1)c1nnc(C)n1-2 [Compound 103] | 50 | 120 | 333 |  |
